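Dose response: 5 concentrations. Exposure: 48 h. Format: 96-well plates. Endpoint: linear interpolation; highest concentration if not reached. TGI: concentration producing complete growth inhibition.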
What was measured:
Assay in all cases: inhibition of tumour cell growth, NCI panel, 48 h
[1] = test system: MOLT-4 leukemia
[2] = test system: NCI-H460 lung
[3] = test system: HL-60(TB) leukemia
[4] = test system: SK-MEL-2 melanoma
[5] = test system: A498 renal
[6] = test system: PC-3 prostate
[7] = test system: 786-0 renal
[8] = test system: HOP-92 NSCLC
[9] = test system: MALME-3M melanoma
[10] = test system: TK-10 renal
[11] = test system: MDA-N
[12] = test system: HCT-116 colon
[13] = test system: K-562 leukemia
[14] = test system: MCF7 breast
[15] = test system: SN12C renal
[16] = test system: DU-145 prostate
[17] = test system: RXF 393 renal
[18] = test system: NCI-H23 lung
[19] = test system: RPMI-8226 leukemia
[20] = test system: SK-MEL-28 melanoma
[21] = test system: SW-620 colon
[22] = test system: T-47D breast
[23] = test system: CCRF-CEM leukemia
[24] = test system: KM12 colon
[25] = test system: HOP-62 NSCLC
[26] = test system: ACHN renal
[27] = test system: UACC-257 melanoma
[28] = test system: BT-549 breast
[29] = test system: SF-295 CNS
[30] = test system: U251 CNS
[31] = test system: SNB-19 CNS
[32] = test system: MDA-MB-231 breast
[33] = test system: OVCAR-3 ovarian
[34] = test system: M14 melanoma
[35] = test system: A549 NSCLC
[36] = test system: HCT-15 colon
[37] = test system: LOX IMVI melanoma
[38] = test system: OVCAR-5 ovarian
[39] = test system: HCC-2998 colon
[40] = test system: COLO 205 colon
[41] = test system: CAKI-1 renal
[42] = test system: HT29 colon
[43] = test system: SR leukemia
[44] = test system: OVCAR-4 ovarian
[45] = test system: NCI/ADR-RES ovarian
[46] = test system: MDA-MB-435
[47] = test system: UO-31 renal
[48] = test system: OVCAR-8 ovarian
[49] = test system: EKVX NSCLC
[50] = test system: IGROV1 ovarian
[51] = test system: SK-OV-3 ovarian
[52] = test system: NCI-H226 lung
[53] = test system: NCI-H522 lung
[54] = test system: SF-268 CNS
[55] = test system: SF-539 CNS
[56] = test system: SK-MEL-5 melanoma
[57] = test system: UACC-62 melanoma

`COc1ccc(N=Nc2c(C)c(C#N)c(=S)n(C3OC(COC(C)=O)C(OC(C)=O)C(OC(C)=O)C3OC(C)=O)c2-c2ccccc2)cc1` (stereo unspecified) was tested. Which TGI [1] did it give?
Its TGI is 47.9 µM.

What about the TGI [2] of the same molecule?
The TGI was > 100 µM.

And the TGI [3]?
Its TGI is > 100 µM.

What about the TGI [4] of the same molecule?
Its TGI is 22.8 µM.

What about the TGI [5] of the same molecule?
The TGI was 7.09 µM.

What about the TGI [6] of the same molecule?
The TGI was 21.3 µM.

And the TGI [7]?
Its TGI is 10.4 µM.

And the TGI [8]?
Its TGI is 7.83 µM.

What about the TGI [9] of the same molecule?
Its TGI is 29.9 µM.

And the TGI [10]?
Its TGI is 34.2 µM.

What about the TGI [11] of the same molecule?
Its TGI is 22.9 µM.

What about the TGI [12] of the same molecule?
Its TGI is 15.6 µM.

What about the TGI [13] of the same molecule?
Its TGI is > 100 µM.

And the TGI [14]?
Its TGI is 17.5 µM.

And the TGI [15]?
Its TGI is 29.9 µM.

And the TGI [16]?
The TGI was 19.6 µM.

And the TGI [17]?
Its TGI is 23.7 µM.

What about the TGI [18] of the same molecule?
The TGI was 34.6 µM.

And the TGI [19]?
Its TGI is > 100 µM.

What about the TGI [20] of the same molecule?
Its TGI is 20.3 µM.

What about the TGI [21] of the same molecule?
Its TGI is 11.1 µM.

What about the TGI [22] of the same molecule?
Its TGI is 41.2 µM.

And the TGI [23]?
The TGI was > 100 µM.

And the TGI [24]?
The TGI was 20.6 µM.

What about the TGI [25] of the same molecule?
The TGI was 26.5 µM.

And the TGI [26]?
Its TGI is > 100 µM.

What about the TGI [27] of the same molecule?
Its TGI is 75.8 µM.

What about the TGI [28] of the same molecule?
The TGI was 17.6 µM.

What about the TGI [29] of the same molecule?
The TGI was 82.1 µM.

What about the TGI [30] of the same molecule?
Its TGI is 22.6 µM.

What about the TGI [31] of the same molecule?
The TGI was 24.2 µM.

And the TGI [32]?
Its TGI is 22.3 µM.

What about the TGI [33] of the same molecule?
Its TGI is 31.1 µM.

What about the TGI [34] of the same molecule?
Its TGI is 10.7 µM.

What about the TGI [35] of the same molecule?
Its TGI is 29.7 µM.

And the TGI [36]?
The TGI was 77.2 µM.

What about the TGI [37] of the same molecule?
The TGI was 17.9 µM.

What about the TGI [38] of the same molecule?
Its TGI is 30.8 µM.

What about the TGI [39] of the same molecule?
Its TGI is > 100 µM.

And the TGI [40]?
Its TGI is 22.9 µM.

And the TGI [41]?
The TGI was 21.3 µM.

What about the TGI [42] of the same molecule?
Its TGI is > 100 µM.

What about the TGI [43] of the same molecule?
Its TGI is > 100 µM.

And the TGI [44]?
Its TGI is 12.1 µM.

And the TGI [45]?
Its TGI is 24.4 µM.

What about the TGI [46] of the same molecule?
The TGI was 27.4 µM.

And the TGI [47]?
The TGI was 94.7 µM.

Which TGI [1] does the source give for `CC1(C)O[C@H]2[C@@H]3N=C(c4ccccc4)O[C@@H]3C=C[C@H]2O1` here?
Its TGI is > 100 µM.

What about the TGI [3] of the same molecule?
The TGI was > 100 µM.

And the TGI [4]?
Its TGI is > 100 µM.

What about the TGI [5] of the same molecule?
Its TGI is > 100 µM.

What about the TGI [6] of the same molecule?
Its TGI is > 100 µM.

What about the TGI [7] of the same molecule?
Its TGI is > 100 µM.

What about the TGI [8] of the same molecule?
The TGI was > 100 µM.

What about the TGI [10] of the same molecule?
Its TGI is > 100 µM.

What about the TGI [48] of the same molecule?
The TGI was > 100 µM.

What about the TGI [11] of the same molecule?
The TGI was > 100 µM.

What about the TGI [49] of the same molecule?
Its TGI is > 100 µM.

What about the TGI [12] of the same molecule?
Its TGI is > 100 µM.

And the TGI [13]?
The TGI was > 100 µM.

And the TGI [14]?
Its TGI is > 100 µM.

And the TGI [15]?
The TGI was > 100 µM.

What about the TGI [16] of the same molecule?
The TGI was > 100 µM.

What about the TGI [18] of the same molecule?
The TGI was > 100 µM.

And the TGI [19]?
Its TGI is > 100 µM.

And the TGI [20]?
The TGI was > 100 µM.

And the TGI [50]?
Its TGI is > 100 µM.

And the TGI [51]?
The TGI was > 100 µM.

And the TGI [21]?
Its TGI is > 100 µM.

What about the TGI [22] of the same molecule?
The TGI was > 100 µM.

And the TGI [23]?
The TGI was > 100 µM.

And the TGI [24]?
Its TGI is > 100 µM.

And the TGI [52]?
Its TGI is > 100 µM.

What about the TGI [25] of the same molecule?
The TGI was > 100 µM.

And the TGI [26]?
Its TGI is > 100 µM.

What about the TGI [27] of the same molecule?
Its TGI is > 100 µM.

What about the TGI [53] of the same molecule?
Its TGI is 17.4 µM.

And the TGI [54]?
The TGI was 33.4 µM.

What about the TGI [28] of the same molecule?
The TGI was > 100 µM.

What about the TGI [29] of the same molecule?
Its TGI is > 100 µM.

What about the TGI [30] of the same molecule?
Its TGI is > 100 µM.

And the TGI [31]?
Its TGI is > 100 µM.

What about the TGI [32] of the same molecule?
The TGI was > 100 µM.

What about the TGI [33] of the same molecule?
Its TGI is > 100 µM.

And the TGI [34]?
Its TGI is > 100 µM.

And the TGI [55]?
The TGI was > 100 µM.

What about the TGI [35] of the same molecule?
Its TGI is > 100 µM.

And the TGI [36]?
The TGI was > 100 µM.

And the TGI [56]?
Its TGI is > 100 µM.

And the TGI [37]?
The TGI was > 100 µM.

And the TGI [38]?
Its TGI is > 100 µM.

What about the TGI [39] of the same molecule?
The TGI was > 100 µM.

And the TGI [40]?
Its TGI is > 100 µM.

What about the TGI [57] of the same molecule?
Its TGI is > 100 µM.

What about the TGI [41] of the same molecule?
Its TGI is > 100 µM.

And the TGI [42]?
Its TGI is > 100 µM.

And the TGI [43]?
The TGI was > 100 µM.

And the TGI [44]?
The TGI was > 100 µM.

What about the TGI [45] of the same molecule?
Its TGI is > 100 µM.

What about the TGI [46] of the same molecule?
Its TGI is > 100 µM.

What about the TGI [47] of the same molecule?
The TGI was > 100 µM.

Reference: PubChem BioAssay (NCI)
